Entries after “also recorded” stand apart in the source; their conditions may differ. Where a name gives a salt, the structure may show the parent alone. Read-outs that look alike come from different tables or passages of the source.
Assays:
[1] = tested on: HCV RNA replication (full-length HCV RNA genome harboring a Luciferase reporter gene); experiment: Luciferase reporter-linked HCV replication assay in Huh7.5 cells; assay type: cell-based, Hepatitis C Virus; conditions: for activity at 5 µM / activity at 10 µM: Hepatitis C virus, Huh7.5
Description: For example, HCV replication assays employing a luciferase reporter-linked HCV genome in the presence of various combinations of clemizole and an NS3 protease inhibitor (SCH503034) are shown in FIGS. 1A and 1B. In such assays, luciferase activity is directly proportional to HCV RNA genome replication. […] The results can be plotted on a linear or log scale as a function of drug concentrations to generate replication inhibition curves.
Luciferase assays were performed at 72 hr.
Medium was changed daily.
The experiment was repeated four times, each time with triplicates.

[2] = molecular target: HuR binding to the consensus 4A RNA sequence (Homo sapiens, UniProt Q15717); experiment: Specificity: HuR binding to 4A RNA by microfluidics; conditions: hits at 0.1 mM
Description: Next a standard 25 μL TNT T7 coupled wheat germ extract mixture (Promega) was prepared and spiked with 1 μL tRNALys-bodipy-fl (Promega) and 2 μL of plasmid DNA template coding for the appropriate protein (HuR, HuD or Gus). The mixture was immediately loaded into the device and flushed for 5 min, after which the chamber valves were opened allowing for dead end filling of the chambers with wheat germ extract. The chamber valves were again closed and flushing continued for an additional 5 min. Next the segregation valves separating each unit cell were closed, followed by opening of the chamber valves allowing for equilibration of the unit cell by diffusion. The entire device was heated to 30° C. on a temperature controlled microscope stage and incubated for up to 90 min to complete protein synthesis, binding of protein to the surface bound biotinylated-5-histidine antibody, solvation of target RNA, and equilibration of proteins and target RNA. […] Radial closure prevents solvent pockets from forming between the two interfaces and effectively creates zero dead volume while preserving the equilibrium concentrations of the molecular interactions to be detected. This was followed by a 5 min PBS wash to remove untapped unbound material. The device was then imaged on a modified array WoRxe (AppliedPrecision) microarray scanner to detect protein synthesis and the trapped molecules. […]

[3] = molecular target: HuR binding to the 3′ terminus of the negative HCV RNA strand (Homo sapiens, UniProt Q15717); experiment: Specificity: HuR binding to the 3′ terminus of the negative HCV RNA strand; conditions: hits at 0.1 mM
Description: Specificity of hits identified in the small molecule screen: To determine the specificity of the hits identified in the small molecule screen, the HuR protein (one of the human RNA binding protein used to validate our RNA binding assay) was selected. […] Binding of HuR to the consensus 4A RNA sequence was tested in the presence of the inhibitory molecules shown to inhibit RNA binding by NS4B. […] Similarly, 0.1 mM of the identified compounds didn't have an inhibitory effect on binding of HuR to the 3′ terminus of the negative HCV RNA strand.

[4] = tested on: Huh7.5 cells; experiment: Alamar Blue-based viability assay; conditions: HCV-infected Huh7.5 cells, FIG. 15
Description: (§1) The in vivo antiviral effect on HCV RNA replication of the inhibitory compounds identified in the above screen was measured. Following electroporation with a full-length HCV RNA genome harboring a Luciferase reporter gene^28, Huh7.5 cells were grown in the presence of increasing concentrations of these compounds. Luciferase assays were performed at 72 hr. In parallel, the viability of cells in the presence of the compounds was assessed by an Alamar Blue-based assay.
(§2) Following 72 hrs of treatment, cells were incubated for 3 hrs at 37° C. in the presence of 10% Alamar Blue reagent (TREK Diagnostic Systems). Plates were then scanned and fluorescence was detected by using FLEXstation II 384 (Molecular Devices, Inc.).

[5] = tested on: infectious HCV clone (J6/JFH); assay type: cell-based, Hepatitis C Virus; conditions: FIG. 15, 72 hours
[6] = tested on: W55R mutant J6/JFH RNA; experiment: Replication assays with the clemizole-resistant W55R mutant; assay type: cell-based, Hepatitis C Virus
[7] = tested on: R214Q mutant HCV RNA; experiment: Luciferase reporter linked replication assay with the clemizole-resistant R214Q mutant; assay type: cell-based; conditions: Hepatitis C virus, read-out: EC50 on the R214Q mutant
[8] = molecular target: T1, W55R NS4B mutant binding to HCV RNA (Hepatitis C virus genotype 1a, UniProt P27958, A1893V/D1840G/F1898S/L1839I/R1905H/S1900A/W1766R); experiment: Microfluidic in vitro RNA binding assay of W55R NS4B mutant; conditions: in the presence of 10 nM clemizole
T1 construct: made in house; host or cells: coupled transcription/translation rabbit reticulocyte system (Promega) with canine microsomal membranes

[9] = tested on: HCV (genotype 4); experiment: Treatment of patients chronically infected with HCV, serum HCV viral load; assay type: in vivo, human
Description: Three patients chronically-infected with HCV (genotype 4) were treated in accordance with an embodiment of the method of the invention. All were male and had baseline ALT elevations and significant HCV viral loads ranging from 290,000-730,000 IU/ml.
After the first four weeks of clemizole monotherapy, pegylated interferon was added.

[10] = human, in vivo; cited from earlier work
[11] = cited from earlier work
[12] = guinea pig; cited from earlier work
[13] = molecular target: NS4B binding to the 3′ terminus of the HCV negative strand RNA (Hepatitis C virus genotype 1a, UniProt P27958); experiment: Microfluidic (MITOMI) in vitro RNA binding assay of NS4B
[14] = Alamar Blue-based viability assay; conditions: human
Description: as §1, §2

[15] = read-out: AV (HCV RNA replication, percent of normal activity remaining)
[16] = read-out: AV score (binned residual HCV replication)
[17] = 3 patients, clemizole 100 mg po BID monotherapy
[18] = 40 to 160 mg/day, 1 to 12 weeks

`Cc1nc2cc(Cl)ccc2n1Cc1ccccc1` gave an activity at 5 µM [1, 15] of 87%, an activity at 5 µM [1, 16] of 60 to 90% and an activity at 10 µM [1, 15] of 60%. It also gave an activity at 10 µM [1, 16] of 60 to 90%.

Compound `Cc1cc2ncn(Cc3ccc(Cl)cc3Cl)c2cc1C` has an activity at 5 µM [1, 15] of 30%, an activity at 5 µM [1, 16] of 10 to 30% and an activity at 10 µM [1, 15] of 8%. It also gave an activity at 10 µM [1, 16] of 10 to 30%.

Work on `Brc1ccc(Cn2cnc3ccccc32)cc1` yielded an activity at 5 µM [1, 15] of 23%, an activity at 5 µM [1, 16] of 10 to 30% and an activity at 10 µM [1, 15] of 8%. For the same compound, the activity at 10 µM [1, 16] was 10 to 30%.

`Cc1nc2ccccc2n1Cc1ccc(Br)cc1` showed an activity at 5 µM [1, 15] of 3%, an activity at 5 µM [1, 16] of 10 to 30% and an activity at 10 µM [1, 15] of 2%. The activity at 10 µM [1, 16] was 10 to 30%.

For `OCc1nc2ccccc2n1Cc1ccc(Br)cc1`, the activity at 5 µM [1, 16] was 30 to 60%, the activity at 10 µM [1, 15] was 28% and the activity at 10 µM [1, 16] was 10 to 30%.

For `COC(=O)c1ccc(Cn2cnc3ccccc32)cc1`, the activity at 5 µM [1, 15] was 74%, the activity at 5 µM [1, 16] was 60 to 90% and the activity at 10 µM [1, 15] was 54%. It also gave an activity at 10 µM [1, 16] of 30 to 60%.

In the case of `CC(C)(C)c1ccc(Cn2cnc3ccccc32)cc1`, the activity at 5 µM [1, 15] is reported as 30%, the activity at 5 µM [1, 16] is reported as 10 to 30% and the activity at 10 µM [1, 15] is reported as 12%. It also gave an activity at 10 µM [1, 16] of 10 to 30%.

`Cc1ccc(Cn2cnc3ccccc32)cc1` showed an activity at 5 µM [1, 15] of 49%, an activity at 5 µM [1, 16] of 30 to 60% and an activity at 10 µM [1, 15] of 23%. It also gave an activity at 10 µM [1, 16] of 10 to 30%.

Compound `COc1ccc(Cn2cnc3ccccc32)cc1` has an activity at 5 µM [1, 15] of 70%, an activity at 5 µM [1, 16] of 60 to 90% and an activity at 10 µM [1, 15] of 58%. For the same compound, the activity at 10 µM [1, 16] was 30 to 60%.

With `O=C(O)C1=CC(=C(c2ccc(O)c(C(=O)O)c2)c2ccc(O)c(C(=O)O)c2)C=CC1=O` [ATA, Aurintricarboxilic acid] the “effect on binding of HuR to 4A RNA” value [2] was “significantly inhibited; also recorded: affected” and the “effect on binding of HuR to the 3′ terminus of the negative HCV RNA strand” value [3] was “significantly inhibited”.

With `Clc1ccc(Cn2c(CN3CCCC3)nc3ccccc32)cc1` [Clemizole hydrochloride, clemizole hydrochloride, reference compound] the “decrease in viral replication” value ([1]; 20 μM, 72 hr) was “tenfold”.

With `Clc1ccc(Cn2c(CN3CCCC3)nc3ccccc32)cc1` [clemizole] the “effect of adding clemizole to NS3 protease inhibitor SCH503034 on HCV replication” value ([1]; SCH503034 1-5 micromolar, 72 hours) was “increase the inhibition of HCV replication in a dose-dependent manner by up to several logs”, the “toxicity to the cell in real-time PCR experiment” value [4] was “no measurable toxicity to the cell” and the “HCV replication levels by real-time PCR” value [5] was “inhibits HCV replication”. For the same compound, the “replication of W55R mutant in presence of clemizole” value ([6]; 10 μM clemizole, whole cell RNA (colonies) or in vitro-transcribed luciferase RNA) was “unaffected”, the EC50 ([6]; Hepatitis C virus, read-out: EC50 on the W55R mutant J6/JFH RNA) was about 18 µM and the EC50 [7] was 40.3 µM. For the same compound, the “reduction of RNA binding of W55R NS4B mutant” value [8] was about 2 fold, the “effect on binding of HuR to 4A RNA” value [2] was “No inhibitory effect” and the “HCV viral load at week 2” value [9, 17] was “drops in HCV viral load”. The “HCV viral load at week 4” value [9, 17] was “nearly at or below the limit of HCV detection; also recorded: completely, or nearly, undetectable”, the “HCV viral load after 8 weeks” value ([9]; 4 weeks clemizole monotherapy plus 4 weeks clemizole with standard dose pegylated interferon) was “below the limit of detection” and the “drowsiness, share of the patients treated (Zierz and Greither)” value [10] was 1.3%. For the same compound, the “patients reporting excellent relief of itching” value [11, 18] was 66%, the “patients reporting good relief of itching” value [11, 18] was 23% and the “patients with mild side effects (drowsiness most common)” value ([11]; human, in vivo) was 4 patients. The “prevention of histamine-induced asthma” value [12] was “superior to atropine and other antihistamines in preventing histamine-induced asthma”, the IC50 [13] was about 0.024 µM and the “reduction of RNA binding of wild type NS4B” value ([13]; in the presence of 10 nM clemizole) was about 2 fold.

In the case of `Clc1ccc(Cn2c(CN3CCCC3)nc3ccccc32)cc1` [drawing 415], the activity at 5 µM [1, 15] is reported as 62%, the activity at 5 µM [1, 16] is reported as 60 to 90% and the activity at 10 µM [1, 15] is reported as 37%. It also gave an activity at 10 µM [1, 16] of 30 to 60%, a viability at 72 h, 5 µM [14] of 107% and a viability at 72 h, 10 µM [14] of 93%.
